Experimental data: ChEMBL document CHEMBL3991601, “The target landscape of clinical kinase drugs” (Science, 2017)
Calls of active or inactive are those of the source.

What was measured:
[1] = biological target: T1, Phosphatidylinositol 5-phosphate 4-kinase type-2 gamma (Homo sapiens, UniProt Q8TBX8)
T1 sequence (Q8TBX8 whole entry): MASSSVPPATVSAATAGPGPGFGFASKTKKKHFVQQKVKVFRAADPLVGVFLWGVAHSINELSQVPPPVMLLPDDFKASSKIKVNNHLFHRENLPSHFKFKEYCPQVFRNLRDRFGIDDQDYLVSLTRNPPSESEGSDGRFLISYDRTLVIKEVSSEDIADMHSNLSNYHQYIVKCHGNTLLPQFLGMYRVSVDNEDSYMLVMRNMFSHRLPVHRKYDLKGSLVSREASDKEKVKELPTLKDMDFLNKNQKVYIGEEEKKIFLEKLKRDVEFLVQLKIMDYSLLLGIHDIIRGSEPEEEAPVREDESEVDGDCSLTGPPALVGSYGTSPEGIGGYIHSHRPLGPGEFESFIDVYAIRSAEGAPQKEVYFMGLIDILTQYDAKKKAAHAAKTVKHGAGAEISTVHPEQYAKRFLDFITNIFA

[2] = biological target: RAC-alpha serine/threonine-protein kinase (Homo sapiens, UniProt P31749)
Sequence of RAC-alpha serine/threonine-protein kinase (P31749 whole entry, canonical isoform): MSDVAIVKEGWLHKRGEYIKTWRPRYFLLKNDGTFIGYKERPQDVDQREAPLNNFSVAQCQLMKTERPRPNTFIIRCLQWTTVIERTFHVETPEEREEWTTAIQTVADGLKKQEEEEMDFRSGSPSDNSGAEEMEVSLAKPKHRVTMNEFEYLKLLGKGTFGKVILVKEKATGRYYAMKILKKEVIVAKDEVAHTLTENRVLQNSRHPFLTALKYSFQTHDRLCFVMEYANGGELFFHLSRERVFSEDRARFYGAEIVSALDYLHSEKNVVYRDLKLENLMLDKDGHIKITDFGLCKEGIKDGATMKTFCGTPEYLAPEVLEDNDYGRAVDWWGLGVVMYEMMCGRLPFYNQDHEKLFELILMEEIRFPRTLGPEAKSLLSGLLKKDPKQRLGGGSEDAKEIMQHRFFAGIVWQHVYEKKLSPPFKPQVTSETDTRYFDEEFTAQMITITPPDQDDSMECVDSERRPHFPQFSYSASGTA

[3] = biological target: S-adenosylmethionine synthase isoform type-2 (Homo sapiens, UniProt P31153)
Sequence of S-adenosylmethionine synthase isoform type-2 (P31153 whole entry, canonical isoform): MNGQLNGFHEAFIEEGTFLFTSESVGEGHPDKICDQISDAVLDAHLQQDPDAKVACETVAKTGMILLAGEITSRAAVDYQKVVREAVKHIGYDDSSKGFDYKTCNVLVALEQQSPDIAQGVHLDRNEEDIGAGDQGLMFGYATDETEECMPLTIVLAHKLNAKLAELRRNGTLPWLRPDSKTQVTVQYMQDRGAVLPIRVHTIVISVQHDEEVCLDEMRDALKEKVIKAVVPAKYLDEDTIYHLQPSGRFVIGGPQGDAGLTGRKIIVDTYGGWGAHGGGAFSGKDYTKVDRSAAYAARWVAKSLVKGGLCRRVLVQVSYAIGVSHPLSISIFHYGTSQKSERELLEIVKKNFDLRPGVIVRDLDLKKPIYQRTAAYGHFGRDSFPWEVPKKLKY

[4] = biological target: T2, STE20-related kinase adapter protein alpha (Homo sapiens, UniProt Q7RTN6)
T2 sequence (Q7RTN6 whole entry): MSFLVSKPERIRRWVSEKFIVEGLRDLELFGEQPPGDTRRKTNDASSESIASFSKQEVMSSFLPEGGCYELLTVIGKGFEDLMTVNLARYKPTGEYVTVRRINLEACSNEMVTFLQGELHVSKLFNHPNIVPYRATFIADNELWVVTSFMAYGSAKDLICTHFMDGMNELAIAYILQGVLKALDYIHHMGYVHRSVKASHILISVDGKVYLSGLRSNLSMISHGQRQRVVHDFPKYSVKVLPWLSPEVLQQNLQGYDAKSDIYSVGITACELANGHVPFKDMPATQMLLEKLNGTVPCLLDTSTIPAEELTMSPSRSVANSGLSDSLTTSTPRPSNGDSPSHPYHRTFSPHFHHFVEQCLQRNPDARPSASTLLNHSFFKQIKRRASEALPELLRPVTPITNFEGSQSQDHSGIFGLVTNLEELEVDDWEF

[5] = biological target: Serine/threonine-protein kinase/endoribonuclease IRE2 (Homo sapiens, UniProt Q76MJ5)
Sequence of Serine/threonine-protein kinase/endoribonuclease IRE2 (Q76MJ5 whole entry): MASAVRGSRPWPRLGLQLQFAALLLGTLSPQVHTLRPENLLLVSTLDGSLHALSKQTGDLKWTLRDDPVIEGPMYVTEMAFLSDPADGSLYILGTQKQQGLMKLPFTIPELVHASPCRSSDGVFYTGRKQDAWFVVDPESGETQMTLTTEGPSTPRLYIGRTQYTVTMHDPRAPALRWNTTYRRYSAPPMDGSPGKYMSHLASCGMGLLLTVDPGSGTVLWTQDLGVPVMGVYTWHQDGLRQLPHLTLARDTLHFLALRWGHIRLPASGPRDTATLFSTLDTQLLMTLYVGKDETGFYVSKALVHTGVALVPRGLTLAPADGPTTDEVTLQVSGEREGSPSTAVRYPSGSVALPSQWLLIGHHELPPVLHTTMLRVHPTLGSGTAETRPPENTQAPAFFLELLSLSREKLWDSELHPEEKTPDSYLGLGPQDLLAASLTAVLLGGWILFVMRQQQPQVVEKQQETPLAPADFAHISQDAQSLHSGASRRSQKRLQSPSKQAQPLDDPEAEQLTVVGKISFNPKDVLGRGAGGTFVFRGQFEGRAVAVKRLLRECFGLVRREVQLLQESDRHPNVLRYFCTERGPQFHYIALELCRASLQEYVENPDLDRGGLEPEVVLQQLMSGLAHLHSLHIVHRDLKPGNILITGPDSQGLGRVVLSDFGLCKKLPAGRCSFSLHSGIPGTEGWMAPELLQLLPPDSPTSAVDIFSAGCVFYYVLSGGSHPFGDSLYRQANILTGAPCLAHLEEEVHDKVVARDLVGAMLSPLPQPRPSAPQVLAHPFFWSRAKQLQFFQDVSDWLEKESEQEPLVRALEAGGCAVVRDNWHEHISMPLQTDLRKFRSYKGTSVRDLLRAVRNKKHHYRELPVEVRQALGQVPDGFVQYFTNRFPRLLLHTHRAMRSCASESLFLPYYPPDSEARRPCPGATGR

[6] = biological target: Tyrosine-protein kinase JAK1 (Homo sapiens, UniProt P23458)
Sequence of Tyrosine-protein kinase JAK1 (P23458 whole entry): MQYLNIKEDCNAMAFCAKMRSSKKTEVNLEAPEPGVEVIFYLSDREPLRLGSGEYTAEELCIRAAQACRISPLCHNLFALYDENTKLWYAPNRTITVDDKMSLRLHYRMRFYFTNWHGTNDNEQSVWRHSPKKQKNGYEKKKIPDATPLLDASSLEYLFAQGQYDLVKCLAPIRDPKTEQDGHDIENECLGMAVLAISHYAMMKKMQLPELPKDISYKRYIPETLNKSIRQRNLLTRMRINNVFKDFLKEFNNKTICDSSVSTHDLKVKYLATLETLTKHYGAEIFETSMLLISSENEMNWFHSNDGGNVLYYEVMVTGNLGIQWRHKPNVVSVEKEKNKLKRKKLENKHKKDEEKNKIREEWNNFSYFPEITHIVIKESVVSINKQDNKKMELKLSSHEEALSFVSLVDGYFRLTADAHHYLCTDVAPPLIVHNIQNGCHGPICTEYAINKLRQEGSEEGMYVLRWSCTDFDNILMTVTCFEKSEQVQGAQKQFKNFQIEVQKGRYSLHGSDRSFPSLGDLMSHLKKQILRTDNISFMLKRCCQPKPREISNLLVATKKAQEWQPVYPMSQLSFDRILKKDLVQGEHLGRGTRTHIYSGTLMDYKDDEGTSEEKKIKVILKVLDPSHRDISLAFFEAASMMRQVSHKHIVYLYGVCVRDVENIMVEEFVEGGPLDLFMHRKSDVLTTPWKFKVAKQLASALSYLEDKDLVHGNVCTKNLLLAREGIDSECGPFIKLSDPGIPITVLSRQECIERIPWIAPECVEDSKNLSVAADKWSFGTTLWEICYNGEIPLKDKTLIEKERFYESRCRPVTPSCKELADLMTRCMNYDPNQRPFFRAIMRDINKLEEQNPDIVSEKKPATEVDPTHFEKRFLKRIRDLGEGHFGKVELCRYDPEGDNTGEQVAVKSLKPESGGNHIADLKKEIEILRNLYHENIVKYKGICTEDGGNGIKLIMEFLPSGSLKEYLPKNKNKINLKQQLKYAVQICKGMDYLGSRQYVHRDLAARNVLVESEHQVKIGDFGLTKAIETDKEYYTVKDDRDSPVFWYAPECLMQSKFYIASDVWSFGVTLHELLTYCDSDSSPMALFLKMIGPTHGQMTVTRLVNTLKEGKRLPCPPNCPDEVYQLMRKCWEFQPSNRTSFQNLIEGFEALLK

[7] = biological target: T3, Bone morphogenetic protein receptor type-2 (Homo sapiens, UniProt Q13873)
T3 sequence (Q13873 whole entry): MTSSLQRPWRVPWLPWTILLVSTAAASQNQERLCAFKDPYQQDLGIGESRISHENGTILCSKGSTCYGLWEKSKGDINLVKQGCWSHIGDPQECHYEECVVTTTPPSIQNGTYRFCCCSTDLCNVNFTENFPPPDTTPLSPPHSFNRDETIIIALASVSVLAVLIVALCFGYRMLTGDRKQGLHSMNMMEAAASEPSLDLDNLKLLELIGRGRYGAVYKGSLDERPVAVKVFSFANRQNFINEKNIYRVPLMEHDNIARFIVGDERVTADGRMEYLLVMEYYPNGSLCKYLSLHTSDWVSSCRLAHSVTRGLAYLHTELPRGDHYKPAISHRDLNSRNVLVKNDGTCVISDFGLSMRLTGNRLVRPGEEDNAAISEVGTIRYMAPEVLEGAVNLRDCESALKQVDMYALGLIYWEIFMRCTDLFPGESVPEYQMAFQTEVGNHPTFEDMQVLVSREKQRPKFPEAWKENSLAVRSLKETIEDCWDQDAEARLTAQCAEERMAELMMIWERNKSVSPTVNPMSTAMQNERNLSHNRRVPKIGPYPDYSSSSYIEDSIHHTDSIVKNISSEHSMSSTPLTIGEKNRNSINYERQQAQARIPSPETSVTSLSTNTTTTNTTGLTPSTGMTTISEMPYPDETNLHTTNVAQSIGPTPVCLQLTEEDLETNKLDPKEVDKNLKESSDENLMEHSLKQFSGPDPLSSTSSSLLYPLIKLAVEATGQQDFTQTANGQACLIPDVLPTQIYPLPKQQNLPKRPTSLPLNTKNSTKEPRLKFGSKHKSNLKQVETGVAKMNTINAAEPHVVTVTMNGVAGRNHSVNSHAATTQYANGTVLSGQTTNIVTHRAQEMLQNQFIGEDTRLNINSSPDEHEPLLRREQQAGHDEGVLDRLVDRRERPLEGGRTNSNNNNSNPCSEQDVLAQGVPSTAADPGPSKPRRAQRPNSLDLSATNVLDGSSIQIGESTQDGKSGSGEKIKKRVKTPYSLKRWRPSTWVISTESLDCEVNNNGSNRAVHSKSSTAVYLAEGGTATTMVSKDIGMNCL

[8] = biological target: T4, Non-receptor tyrosine-protein kinase TNK1 (Homo sapiens, UniProt Q13470)
T4 sequence (Q13470 whole entry): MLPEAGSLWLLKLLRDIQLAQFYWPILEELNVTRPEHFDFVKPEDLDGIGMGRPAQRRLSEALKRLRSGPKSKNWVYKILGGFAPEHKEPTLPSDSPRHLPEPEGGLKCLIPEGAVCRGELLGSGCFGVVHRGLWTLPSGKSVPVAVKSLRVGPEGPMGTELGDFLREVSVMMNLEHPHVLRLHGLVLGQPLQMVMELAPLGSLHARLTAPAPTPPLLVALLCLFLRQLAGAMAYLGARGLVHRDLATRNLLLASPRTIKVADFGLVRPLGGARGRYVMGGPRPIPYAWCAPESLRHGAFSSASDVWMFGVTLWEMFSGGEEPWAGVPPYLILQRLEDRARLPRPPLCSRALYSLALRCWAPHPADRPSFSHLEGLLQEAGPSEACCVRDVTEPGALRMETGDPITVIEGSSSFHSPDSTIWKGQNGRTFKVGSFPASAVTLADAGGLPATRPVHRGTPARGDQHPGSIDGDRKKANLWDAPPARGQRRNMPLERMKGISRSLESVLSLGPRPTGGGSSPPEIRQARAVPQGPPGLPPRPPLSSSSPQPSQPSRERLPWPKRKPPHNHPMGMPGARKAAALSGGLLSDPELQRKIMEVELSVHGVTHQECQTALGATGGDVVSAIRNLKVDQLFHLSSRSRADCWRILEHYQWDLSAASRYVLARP
Also: in the data inactive means no Kd found up to 30 µM.

Row | Structure (SMILES) | Kd [1] | Kd [2] | Kd [3] | Kd [4] | Kd [5] | Kd [6] | Kd [7] | Kd [8]
1 | COC(=O)N[C@@H](C)CNc1nccc(-c2cn(C(C)C)nc2-c2cc(Cl)cc(NS(C)(=O)=O)c2F)n1 [ENCORAFENIB] | > 30 µM (inactive) | > 30 µM (inactive) | > 30 µM (inactive) | > 30 µM (inactive) | > 30 µM (inactive) | > 30 µM (inactive) | > 30 µM (inactive) | > 30 µM (inactive)
2 | CO[C@H]1C[C@@H]2CC[C@@H](C)[C@@](O)(O2)C(=O)C(=O)N2CCCC[C@H]2C(=O)O[C@H]([C@H](C)C[C@@H]2CC[C@@H](OCCO)[C@H](OC)C2)CC(=O)[C@H](C)/C=C(\C)[C@@H](O)[C@@H](OC)C(=O)[C@H](C)C[C@H](C)/C=C/C=C/C=C/1C [EVEROLIMUS] | > 30 µM (inactive) | > 30 µM (inactive) | > 30 µM (inactive) | > 30 µM (inactive) | > 30 µM (inactive) | > 30 µM (inactive) | > 30 µM (inactive) | > 30 µM (inactive)
3 | COCCNCc1ccc(-c2cc3nccc(Oc4ccc(NC(=S)NC(=O)Cc5ccc(F)cc5)cc4F)c3s2)nc1 [GLESATINIB] | > 30 µM (inactive) | > 30 µM (inactive) | > 30 µM (inactive) | > 30 µM (inactive) | > 30 µM (inactive) | > 30 µM (inactive) | > 30 µM (inactive) | 1.49 µM (active)
4 | O=C1NC(=O)/C(=C/c2ccc3nccc(-c4ccncc4)c3c2)S1 [GSK-1059615] | 0.331 µM | > 30 µM (inactive) | > 30 µM (inactive) | > 30 µM (inactive) | > 30 µM (inactive) | > 30 µM (inactive) | > 30 µM (inactive) | > 30 µM (inactive)
5 | CC[C@H](Nc1ncnc2[nH]cnc12)c1nc2cccc(F)c2c(=O)n1-c1ccccc1 [IDELALISIB] | > 30 µM (inactive) | > 30 µM (inactive) | > 30 µM (inactive) | > 30 µM (inactive) | > 30 µM (inactive) | > 30 µM (inactive) | > 30 µM (inactive) | > 30 µM (inactive)
6 | COC(=O)[C@@]1(O)C[C@H]2O[C@]1(C)n1c3ccccc3c3c4c(c5c6ccccc6n2c5c31)C(=O)NC4 [K-252A] | > 30 µM (inactive) | > 30 µM (inactive) | > 30 µM (inactive) | > 30 µM (inactive) | 0.908 µM (active) | > 30 µM (inactive) | > 30 µM (inactive) | 0.287 µM (active)
7 | COc1cc2nccc(Oc3ccc(NC(=O)NC4CC4)c(Cl)c3)c2cc1C(N)=O [LENVATINIB] | > 30 µM (inactive) | > 30 µM (inactive) | > 30 µM (inactive) | > 30 µM (inactive) | > 30 µM (inactive) | > 30 µM (inactive) | > 30 µM (inactive) | > 30 µM (inactive)
8 | O=C(O)[C@]1(Cc2cccc(Nc3nccs3)n2)CC[C@@H](Oc2cccc(Cl)c2F)CC1 [MK-5108] | > 30 µM (inactive) | > 30 µM (inactive) | > 30 µM (inactive) | > 30 µM (inactive) | > 30 µM (inactive) | > 30 µM (inactive) | > 30 µM (inactive) | 0.006 µM (active)
9 | C1=C/COCc2cc(ccc2OCCN2CCCC2)Nc2nccc(n2)-c2cccc(c2)COC/1 [PACRITINIB] | > 30 µM (inactive) | > 30 µM (inactive) | > 30 µM (inactive) | > 30 µM (inactive) | > 30 µM (inactive) | > 30 µM (inactive) | > 30 µM (inactive) | 0.888 µM (active)
10 | Cc1ccc(-n2nc(C(C)(C)C)cc2NC(=O)NCc2cc(F)ccc2Oc2ccc3c(cnn3CCO)c2)cc1 [PEXMETINIB] | > 30 µM (inactive) | > 30 µM (inactive) | > 30 µM (inactive) | > 30 µM (inactive) | > 30 µM (inactive) | > 30 µM (inactive) | > 30 µM (inactive) | 1.66 µM (active)
11 | OCCn1cc(-c2cnc3nnn(Cc4ccc5ncccc5c4)c3n2)cn1 [PF-04217903] | > 30 µM (inactive) | > 30 µM (inactive) | > 30 µM (inactive) | > 30 µM (inactive) | > 30 µM (inactive) | > 30 µM (inactive) | > 30 µM (inactive) | > 30 µM (inactive)
12 | CNC(=O)c1ccc(C)c(-n2c(C)cc(OCc3ccc(F)cc3F)c(Br)c2=O)c1 [PH-797804] | > 30 µM (inactive) | > 30 µM (inactive) | > 30 µM (inactive) | 0.672 µM | > 30 µM (inactive) | > 30 µM (inactive) | > 30 µM (inactive) | > 30 µM (inactive)
13 | C=CC(=O)N1CCC(Oc2cc3c(Nc4ccc(Cl)c(Cl)c4F)ncnc3cc2OC)CC1 [POZIOTINIB] | > 30 µM (inactive) | > 30 µM (inactive) | > 30 µM (inactive) | > 30 µM (inactive) | > 30 µM (inactive) | > 30 µM (inactive) | > 30 µM (inactive) | 1.68 µM (active)
14 | CNC(=O)c1cc(Oc2ccc(NC(=O)Nc3ccc(Cl)c(C(F)(F)F)c3)c(F)c2)ccn1 [REGORAFENIB] | > 30 µM (inactive) | > 30 µM (inactive) | > 30 µM (inactive) | > 30 µM (inactive) | > 30 µM (inactive) | > 30 µM (inactive) | > 30 µM (inactive) | > 30 µM (inactive)
15 | CN(C)C(=O)c1cc2cnc(Nc3ccc(N4CCNCC4)cn3)nc2n1C1CCCC1 [RIBOCICLIB] | > 30 µM (inactive) | > 30 µM (inactive) | > 30 µM (inactive) | > 30 µM (inactive) | > 30 µM (inactive) | > 30 µM (inactive) | > 30 µM (inactive) | > 30 µM (inactive)
16 | COc1cc(OC)c(/C=C/S(=O)(=O)Cc2ccc(OC)c(NCC(=O)O)c2)c(OC)c1 [RIGOSERTIB] | > 30 µM (inactive) | > 30 µM (inactive) | > 30 µM (inactive) | > 30 µM (inactive) | > 30 µM (inactive) | > 30 µM (inactive) | > 30 µM (inactive) | > 30 µM (inactive)
